For 36 molecules, IC50 results are on record in patent US20240254119A1 (THIRD HARMONIC BIO, INC., priority 2022, published 2024).

Each structure is given as a SMILES string.

The target of this experiment is T1, wtKIT (Homo sapiens, UniProt P10721).
T1 construct: 1888289AM in the reaction mixtures
Kind of experiment: HTRF biochemical assay, wtKIT (phosphorylation of a peptide substrate). Particulars: Table 4. The protocol:
Exemplary compounds were tested for ability to inhibit the phosphorylation of a peptide substrate by the tyrosine kinase wt KIT, PDGFRα, or CSF-1R. Assay procedures and results are described below.
Enzyme, substrate, and cofactors (ATP and Mn^2+) are combined in a well of a microtiter plate and incubated for 3 hours at 25° C. At the end of the incubation, the reaction is quenched by the addition of an EDTA-containing buffer.
The substrate used in the CSF-1R and PDGFRα assay is FAM-[…]-CONH2 (FAM is carboxyfluorescein). Peptide should be >95% purity. The substrate for the KIT assay is FAM-[…]-NH2.
• 1. To a well of a 384-wellplate add 5 μL of 2× enzyme buffer (or control). • 2. Add 100 nL of 100× compound. Enzyme and compound may be pre-incubated at this time if desired. • 3. Add 5 μL of 2× substrate buffer. • 4. Incubate plate at 25° C. for 3 hours. • 5. Add 10 uL of anti-phosphotyrosine antibody buffer. • 6. Read plate in BioTek Synergy Reader. Reaction Conditions for wtKIT Assay
• 100 mM HEPES, pH 7.5 0.1% BSA • 0.01% Triton x-100 • 1 mM DTT • 10 mM MnCl2 • 10 μM Sodium Orthovanadate • 10 μM Beta-Glycerophosphate • 400 μM ATP • 1% DMSO (from compound) • 1 μM FAM-[…]-CONH2, 5.0 nM wtKIT Enzyme (1888289AM)* • *Specific activity may vary from lot to lot. Enzyme concentration may need to be adjusted to yield 10-20% conversion of substrate to product.

T1 sequence (P10721 26-976): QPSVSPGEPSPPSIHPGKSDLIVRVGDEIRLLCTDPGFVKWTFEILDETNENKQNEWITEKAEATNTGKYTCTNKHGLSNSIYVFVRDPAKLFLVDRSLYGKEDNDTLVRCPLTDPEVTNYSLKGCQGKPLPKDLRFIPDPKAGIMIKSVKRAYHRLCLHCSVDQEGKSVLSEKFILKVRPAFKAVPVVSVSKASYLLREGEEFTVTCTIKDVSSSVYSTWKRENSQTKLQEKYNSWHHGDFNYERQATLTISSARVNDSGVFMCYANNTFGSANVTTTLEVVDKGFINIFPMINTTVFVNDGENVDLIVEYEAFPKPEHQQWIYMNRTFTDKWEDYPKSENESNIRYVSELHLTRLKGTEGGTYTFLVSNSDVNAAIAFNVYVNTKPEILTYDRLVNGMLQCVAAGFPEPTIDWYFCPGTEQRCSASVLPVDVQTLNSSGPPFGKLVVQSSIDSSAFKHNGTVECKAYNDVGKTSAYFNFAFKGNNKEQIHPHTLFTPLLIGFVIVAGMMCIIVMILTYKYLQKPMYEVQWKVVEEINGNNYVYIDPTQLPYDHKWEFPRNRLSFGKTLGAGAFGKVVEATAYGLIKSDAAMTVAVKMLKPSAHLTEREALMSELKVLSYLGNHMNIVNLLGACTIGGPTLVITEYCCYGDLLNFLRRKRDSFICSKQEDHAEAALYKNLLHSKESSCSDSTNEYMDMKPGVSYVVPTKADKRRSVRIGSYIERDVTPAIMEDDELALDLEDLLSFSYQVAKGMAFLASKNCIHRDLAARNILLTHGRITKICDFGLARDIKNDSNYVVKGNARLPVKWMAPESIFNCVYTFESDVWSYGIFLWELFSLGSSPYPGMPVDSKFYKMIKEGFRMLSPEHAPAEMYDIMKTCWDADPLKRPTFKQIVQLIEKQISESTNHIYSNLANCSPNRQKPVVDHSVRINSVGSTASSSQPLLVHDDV

Broadly, the IC50 is the concentration that inhibits the measured activity by half. As to `Cc1ccc(-c2noc(C[C@H](O)C(F)F)n2)cc1NC(=O)c1cnc2cc(OCCO)ccn12` [Compound I-570, (S)—N-(5-(5-(3,3-difluoro-2-hydroxypropyl)-1,2,4-oxadiazol-3-yl)-2-methylphenyl)-7-(2-hydroxyethoxy)imidazo[1,2-a]pyridine-3-carboxamide], the IC50 was at most 50 nM.
Regarding `Cc1ccc(-c2noc([C@H]3C[C@@H]3F)n2)cc1NC(=O)c1cnc2cc(COCC(=O)O)ccn12` [Compound I-477, 2-((3-((5-(5-((1R,2S)-2-fluorocyclopropyl)-1,2,4-oxadiazol-3-yl)-2-methylphenyl)carbamoyl)imidazo[1,2-a]pyridin-7-yl)methoxy)acetic acid], the IC50 was at most 50 nM.
Consider `Cc1ccc(-c2ncon2)cc1NC(=O)c1cnc2cc(COCCO)ccn12` [Compound I-700], for which the IC50 lay in the range of 50 to 500 nM.
`Cc1ccc(-c2noc(C(C)O)n2)cc1NC(=O)c1cnc2cc(F)ccn12` (stereo not drawn) [Compound I-741]: the IC50 is 500 to 5000 nM.
To `CCc1nc(-c2ccc(C)c(NC(=O)c3cnc4cc(COC)ccn34)c2)no1` [Compound I-734] belongs at most 50 nM; to `Cc1ccc(-c2noc(C[C@H](O)C(F)F)n2)cc1NC(=O)c1cnc2cc(OCCCC(C)(C)O)ccn12` [Compound I-580, (S)—N-(5-(5-(3,3-difluoro-2-hydroxypropyl)-1,2,4-oxadiazol-3-yl)-2-methylphenyl)-7-((4-hydroxy-4-methylpentyl)oxy)imidazo[1,2-a]pyridine-3-carboxamide], at most 50 nM; to `Cc1ccc(-c2noc([C@H]3C[C@@H]3F)n2)cc1NC(=O)c1cnc2cc(Cl)c(F)cn12` [Compound I-613, 7-Chloro-6-fluoro-N-(5-(5-((1R,2S)-2-fluorocyclopropyl)-1,2,4-oxadiazol-3-yl)-2-methylphenyl)imidazo[1,2-a]pyridine-3-carboxamide], at most 50 nM.
To `Cc1ccc(-c2noc(C[C@H](O)C(F)F)n2)cc1NC(=O)c1cnc2cc(COCc3c[nH]cn3)ccn12` [Compound I-585, (S)-7-(((1H-imidazol-4-yl)methoxy)methyl)-N-(5-(5-(3,3-difluoro-2-hydroxypropyl)-1,2,4-oxadiazol-3-yl)-2-methylphenyl)imidazo[1,2-a]pyridine-3-carboxamide] belongs at most 50 nM; to `Cc1nc(-c2ccc(C)c(NC(=O)c3cnn4cc(-c5ccn(C)n5)ccc34)c2)no1` [Compound I-535, 6-(1-methyl-1H-pyrazol-3-yl)-N-(2-methyl-5-(5-methyl-1,2,4-oxadiazol-3-yl)phenyl)pyrazolo[1,5-a]pyridine-3-carboxamide], at most 50 nM.
Under `Cc1ccc(-c2noc([C@H]3C[C@@H]3F)n2)cc1NC(=O)c1cnc2cc(OCCCN3CCCC3)ccn12` [Compound I-630, N-(5-(5-((1R,2S)-2-fluorocyclopropyl)-1,2,4-oxadiazol-3-yl)-2-methylphenyl)-7-(3-(pyrrolidin-1-yl)propoxy)imidazo[1,2-a]pyridine-3-carboxamide] stands at most 50 nM.
`Cc1ccc(-c2noc([C@H]3C[C@@H]3F)n2)cc1NC(=O)c1cnc2cc([C@@H]3C[C@H]3CO)ccn12` [Compound I-481, N-[5-[5-[(1R,2S)-2-fluorocyclopropyl]-1,2,4-oxadiazol-3-yl]-2-methyl-phenyl]-7-[(1R,2R)-2 (hydroxymethyl)cyclopropyl]imidazo[1,2-a]pyridine-3-carboxamide]: the IC50 was at most 50 nM.
As to `Cc1nc(-c2ccc(C)c(NC(=O)c3cnc4cc(-c5csc(CO)n5)ccn34)c2)no1` [Compound I-594, 7-(2-(hydroxymethyl)thiazol-4-yl)-N-(2-methyl-5-(5-methyl-1,2,4-oxadiazol-3-yl)phenyl)imidazo[1,2-a]pyridine-3-carboxamide], the IC50 was at most 50 nM.
Regarding `Cc1ccc(-c2noc([C@@H]3CC4(CC4)CN3)n2)cc1NC(=O)c1cnc2cc(F)ccn12` [Compound I-628, (S)—N-(5-(5-(5-azaspiro[2.4]heptan-6-yl)-1,2,4-oxadiazol-3-yl)-2-methylphenyl)-7-fluoroimidazo[1,2-a]pyridine-3-carboxamide], the IC50 is at most 50 nM.
Under `Cc1ccc(-c2ncon2)cc1NC(=O)c1cnn2ccccc12` [Compound I-640, N-(2-methyl-5-(1,2,4-oxadiazol-3-yl)phenyl)pyrazolo[1,5-a]pyridine-3-carboxamide] stands 50 to 500 nM.
Turning to `COc1ccn2c(C(=O)Nc3cc(-c4noc(N5CC(F)(F)C5)n4)ccc3C)cnc2c1` [Compound I-603, N-(5-(5-(3,3-difluoroazetidin-1-yl)-1,2,4-oxadiazol-3-yl)-2-methylphenyl)-7-methoxyimidazo[1,2-a]pyridine-3-carboxamide], the IC50 was at most 50 nM.
Under `Cc1ccc(-c2noc(C(C)O)n2)cc1NC(=O)c1cnn2cc(-c3ccn(C)n3)ccc12` (stereo not drawn) [Compound I-730] stands at most 50 nM.
Regarding `Cc1ccc(-c2noc([C@H]3C[C@@H]3F)n2)cc1NC(=O)c1cnn2cc(COCC(C)(C)O)ccc12` [Compound I-466, N-[5-[5-[(1R,2S)-2-fluorocyclopropyl]-1,2,4-oxadiazol-3-yl]-2-methyl-phenyl]-6-[(2-hydroxy-2-methylpropoxy)methyl]pyrazolo[1,5-a]pyridine-3-carboxamide], the IC50 was at most 50 nM.
Regarding `Cc1ccc(-c2noc([C@H]3C[C@@H]3F)n2)cc1NC(=O)c1cnc2cc(COCC(C)O)ccn12` (single isomer, unassigned) [Compound I-468, N-[5-[5-[(1R,2S)-2-fluorocyclopropyl]-1,2,4-oxadiazol-3-yl]-2-methyl-phenyl]-7-[[(2R*)-2-hydroxypropoxy]methyl]imidazo[1,2-a]pyridine-3-carboxamide], the IC50 was at most 50 nM.
Under `Cc1ccn2c(C(=O)Nc3cc(-c4noc(-c5ccnnc5)n4)ccc3C)cnc2c1` [Compound I-546] stands 50 to 500 nM.
Under `Cc1ccc(-c2noc(CC3COC3)n2)cc1NC(=O)c1cnc2cc(COCC3(O)CC3)ccn12` [Compound I-637] stands 50 to 500 nM; under `COCc1ccn2c(C(=O)Nc3cc(-c4noc(C(C)O)n4)ccc3C)cnc2c1` (stereo not drawn) [Compound I-735], 500 to 5000 nM.
`Cc1ccc(-c2noc(-c3cccnc3)n2)cc1NC(=O)c1cnn2cc(-c3ccn(C)n3)ccc12` [Compound I-723]: the IC50 is at most 50 nM.
To `Cc1ccc(-c2noc(C3CC(N)C3)n2)cc1NC(=O)c1cnc2cc(Cl)ccn12` (stereo not drawn) [Compound I-746] belongs 500 to 5000 nM; to `COc1ccn2c(C(=O)Nc3cc(-c4noc(C(C)O)n4)ccc3C)cnc2c1` (stereo not drawn) [Compound I-742], 50 to 500 nM.
Under `Cc1ccc(-c2noc(CC(O)C(F)F)n2)cc1NC(=O)c1cnc2cc(COCC(C)N(C)C(=O)OC(C)(C)C)ccn12` (stereo not drawn) [Compound I-600] stands 50 to 500 nM; under `Cc1ccc(-c2noc(C3CC(F)(F)C3)n2)cc1NC(=O)c1cnn2ccccc12` [Compound I-518, methyl N-(5-(5-(3,3-difluorocyclobutyl)-1,2,4-oxadiazol-3-yl)-2-methylphenyl)pyrazolo[1,5-a]pyridine-3-carboxamide], at most 50 nM.
Under `CCc1nc(-c2ccc(C)c(NC(=O)c3cnc4cc(F)ccn34)c2)no1` [Compound I-739] stands at most 50 nM.
As to `Cc1ccc(-c2noc(C[C@H](O)C(F)F)n2)cc1NC(=O)c1cnc2ccc(-c3cscn3)cn12` [Compound I-560, (S)—N-(5-(5-(3,3-difluoro-2-hydroxypropyl)-1,2,4-oxadiazol-3-yl)-2-methylphenyl)-6-(thiazol-4-yl)imidazo[1,2-a]pyridine-3-carboxamide], the IC50 was at most 50 nM.
To `CCC(O)Cc1nc(-c2ccc(C)c(NC(=O)c3cnc4ccccn34)c2)no1` (stereo not drawn) [Compound I-526] belongs at most 50 nM.
Under `Cc1ccc(-c2noc(CCC(C)(C)O)n2)cc1NC(=O)c1cnc2cc(COCC(C)(C)O)ccn12` [Compound I-567] stands 50 to 500 nM.
Under `CNCCOCc1ccn2c(C(=O)Nc3cc(-c4noc(C[C@H](O)C(F)F)n4)ccc3C)cnc2c1` [Compound I-593] stands 50 to 500 nM.
For the molecule `Cc1ccc(-c2noc([C@H]3C[C@@H]3F)n2)cc1NC(=O)c1cnc2cc(C/C=C/OCCO)ccn12` [Compound I-506, N-[5-[5-[(1R,2S)-2-fluorocyclopropyl]-1,2,4-oxadiazol-3-yl]-2-methyl-phenyl]-7-[(E)-3-(2-hydroxyethoxy)allyl]imidazo[1,2-a]pyridine-3-carboxamide], the IC50 is at most 50 nM.
For `Cc1ccc(-c2ncon2)cc1NC(=O)c1cnc2cc(N3CCCCC3)ccn12` [Compound I-712], the IC50 lay in the range of 50 to 500 nM.
Regarding `Cc1ccc(-c2ncon2)cc1NC(=O)c1cnn2cc(-c3ccn(C)n3)ccc12` [Compound I-729], the IC50 was at most 50 nM.
To `CNCC(O)Cc1nc(-c2ccc(C)c(NC(=O)c3cnc4ccccn34)c2)no1` (stereo not drawn) [Compound I-557] belongs 5000 to 30000 nM.
To `Cc1ccc(-c2noc([C@H]3C[C@@H]3F)n2)cc1NC(=O)c1cnc2cc(COC[C@H](O)C(F)F)ccn12` [Compound I-501, 7-(((S)-3,3-difluoro-2-hydroxypropoxy)methyl)-N-(5-(5-((1R,2S)-2-fluorocyclopropyl)-1,2,4-oxadiazol-3-yl)-2-methylphenyl)imidazo[1,2-a]pyridine-3-carboxamide] belongs at most 50 nM.
